We go through 22 compounds from patent US8378104B2 (OSI Pharmaceuticals, LLC, priority 2010, dated 2013).

One test addresses T1, TAK1-TAB1 fusion protein (Homo sapiens, UniProt O43318).
T1 construct: purchased Carna
T1 sequence (O43318 with tags, fused parts or gaps limits assumed): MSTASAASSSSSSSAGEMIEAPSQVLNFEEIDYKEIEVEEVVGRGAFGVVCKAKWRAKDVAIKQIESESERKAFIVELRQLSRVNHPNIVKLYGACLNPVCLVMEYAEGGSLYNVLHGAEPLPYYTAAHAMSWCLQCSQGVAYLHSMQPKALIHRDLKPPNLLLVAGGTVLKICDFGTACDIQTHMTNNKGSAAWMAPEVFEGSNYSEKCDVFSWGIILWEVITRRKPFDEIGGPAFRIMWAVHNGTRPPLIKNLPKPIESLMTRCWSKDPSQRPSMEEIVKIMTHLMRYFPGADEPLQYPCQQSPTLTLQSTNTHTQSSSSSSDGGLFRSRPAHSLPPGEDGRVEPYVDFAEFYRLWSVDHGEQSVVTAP
In words: TAK1 biochemical assay (AlphaScreen, GST-MAP2K7 substrate). As to conditions: TAK1-TAB1 fusion protein, GST-MAP2K7 substrate; read-out: mean TAK1 IC50 (Col. A). For orientation: Alpha assays give light when donor and acceptor beads are brought close together.

The next test concerns p-p38 in HCT-116 cells. In words: Phospho-p38 Meso Scale ELISA assay, TNFα-stimulated HCT-116 cells. The class given is cell-based. As to conditions: Homo sapiens, read-out: mean HCT-116 p-p38 ELISA IC50 (Col. C). The gist of the method:
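Phospho-p38 measured by Meso Scale ELISA on diluted lysates, captured overnight at 4° C. Before lysis, HCT-116 cells were serum-reduced (1% FCS, 2 h), treated with compounds 4 h at 37° C and stimulated 10 min with 10 ng/mL TNFα final.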

The subject of another test is pJNK in HCT-116 cells. Put plainly: Phospho-JNK (Thr183/Tyr185) Meso Scale ELISA assay, TNFα-stimulated HCT-116 cells. In kind it is cell-based. Particulars: Homo sapiens, read-out: mean HCT-116 pJNK ELISA IC50 (Col. B). The essentials:
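Meso Scale ELISA read of phospho-JNK (Thr183/Tyr185) in lysed HCT-116 cells. Cells were serum-reduced to 1% FCS for 2 hours, exposed to test drug for 4 hrs at 37° C, then given 10 ng/mL TNFα (final) for 10 minutes before lysis.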

Counter-ions that a name gives are not always drawn.

A word on the IC50: it is the midpoint of a concentration-inhibition curve. As for `Nc1ncc(-c2cnn(C3CCN(CC(F)(F)F)CC3)c2)c2cc(-c3cccc4cnccc34)oc12` [Example 84, 2-(isoquinolin-5-yl)-4-{1-[1-(2,2,2-trifluoroethyl)piperidin-4-yl]-1H-pyrazol-4-yl}furo[2,3-c]pyridin-7-amine], the figures for the 50% inhibitory concentration (IC50) at TAK1-TAB1 fusion protein, in the test with p-p38 in HCT-116 cells and in the test on pJNK in HCT-116 cells were 1000 to 10000 nM, 100 to 1000 nM and 100 to 1000 nM, respectively.
Take `CC(=O)N1CCC(n2cc(-c3cnc(N)c4oc(-c5cccc6c5oc5ccccc56)cc34)cn2)CC1` [Example 93, 1-(4-{4-[7-amino-2-(dibenzo[b,d]furan-4-yl)furo[2,3-c]pyridin-4-yl]-1H-pyrazol-1-yl}piperidin-1-yl)ethanone]: the results for the IC50 at TAK1-TAB1 fusion protein, with p-p38 in HCT-116 cells and in the test on pJNK in HCT-116 cells were greater than 10000 nM, 1000 to 10000 nM and 1000 to 10000 nM, respectively.
`CC(=O)N1CCC(n2cc(-c3cnc(N)c4oc(-c5c[nH]c6cc(F)ccc56)cc34)cn2)CC1` [Example 213, 1-(4-{4-[7-amino-2-(6-fluoro-1H-indol-3-yl)furo[2,3-c]pyridin-4-yl]-1H-pyrazol-1-yl}piperidin-1-yl)ethanone]: the IC50 on TAK1-TAB1 fusion protein, in the test with p-p38 in HCT-116 cells and in the test on pJNK in HCT-116 cells was 100 to 1000 nM throughout.
On to `Nc1ncc(-c2cnn(C3CCNCC3)c2)c2cc(-c3ccc4[nH]ccc4c3)oc12` [Example 38, 2-(1H-indol-5-yl)-4-[1-(piperidin-4-yl)-1H-pyrazol-4-yl]furo[2,3-c]pyridin-7-amine], for which the figures for the 50% inhibitory concentration (IC50) on TAK1-TAB1 fusion protein, with p-p38 in HCT-116 cells and in the test with pJNK in HCT-116 cells were 100 to 1000 nM, 1000 to 10000 nM and 1000 to 10000 nM, respectively.
Take `Nc1ncc(-c2cnn([C@@H]3C[C@@H](O)[C@@H](O)C3)c2)c2cc(-c3csc4cnccc34)oc12` [Example 311, rel-(1R,2S,4S)-4-[4-(7-amino-2-thieno[2,3-c]pyridin-3-yl-furo[2,3-c]pyridin-4-yl)-pyrazol-1-yl]-cyclopentane-1,2-diol]: the figures for the IC50 on TAK1-TAB1 fusion protein, in the test with p-p38 in HCT-116 cells and with pJNK in HCT-116 cells were less than 100 nM, 100 to 1000 nM and 100 to 1000 nM, respectively.
Turning to `Nc1ncc(-c2cnn(C3CCNCC3)c2)c2cc(-c3ccc4[nH]ncc4c3)oc12` [Example 18, 2-(1H-indazol-5-yl)-4-[1-(piperidin-4-yl)-1H-pyrazol-4-yl]furo[2,3-c]pyridin-7-amine hydrochloride], the IC50 at TAK1-TAB1 fusion protein is less than 100 nM; in the test on p-p38 in HCT-116 cells, 100 to 1000 nM; with pJNK in HCT-116 cells, 100 to 1000 nM.
Consider `Nc1ncc(-c2cnn([C@H]3CC[C@H](O)CC3)c2)c2cc(-c3cccc4cnsc34)oc12` [Example 234, trans-4-{4-[7-amino-2-(1,2-benzothiazol-7-yl)furo[2,3-c]pyridin-4-yl]-1H-pyrazol-1-yl}cyclohexanol], for which the IC50 was less than 100 nM on TAK1-TAB1 fusion protein, 100 to 1000 nM in the test on p-p38 in HCT-116 cells and less than 100 nM in the test on pJNK in HCT-116 cells.
`Nc1ncc(-c2cnn(C3CCN(CCO)CC3)c2)c2cc(-c3cccc4cnccc34)oc12` [Example 85, 2-(4-{-4-[7-amino-2-(isoquinolin-5-yl)furo[2,3-c]pyridin-4-yl]-1H-pyrazol-1-yl}piperidin-1-yl)ethanol]: the IC50 at TAK1-TAB1 fusion protein, with p-p38 in HCT-116 cells and with pJNK in HCT-116 cells was 100 to 1000 nM each time.
Consider `CC(=O)N1CCC(n2cc(-c3cnc(N)c4oc(-c5c(C)n[nH]c5C)cc34)cn2)CC1` [Example 180, 1-(4-{4-[7-amino-2-(3,5-dimethyl-1H-pyrazol-4-yl)furo[2,3-c]pyridin-4-yl]-1H-pyrazol-1-yl}piperidin-1-yl)ethanone], for which the IC50 fell in the range of 100 to 1000 nM at TAK1-TAB1 fusion protein, 1000 to 10000 nM in the test on p-p38 in HCT-116 cells and 1000 to 10000 nM with pJNK in HCT-116 cells.
Take `CC(C)(C)OC(=O)N1CCC(n2cc(-c3cnc(N)c4oc(-c5csc6cnccc56)cc34)cn2)CC1` [Example 300, 4-[4-(7-amino-2-thieno[2,3-c]pyridin-3-yl-furo[2,3-c]pyridin-4-yl)-pyrazol-1-yl]piperidine-1-carboxylic acid tert-butyl ester]: the half-maximal inhibitory concentration (IC50) on TAK1-TAB1 fusion protein, with p-p38 in HCT-116 cells and in the test with pJNK in HCT-116 cells was 100 to 1000 nM throughout.
Turning to `CC(=O)N1CCC(n2cc(-c3cnc(N)c4oc(-c5cncc6cnsc56)cc34)cn2)CC1` [Example 262, 1-(4-{4-[7-amino-2-([1,2]thiazolo[4,5-c]pyridin-7-yl)furo[2,3-c]pyridin-4-yl]-1H-pyrazol-1-yl}piperidin-1-yl)ethanone Diformate Salt], the 50% inhibitory concentration (IC50) on TAK1-TAB1 fusion protein, in the test on p-p38 in HCT-116 cells and with pJNK in HCT-116 cells was 100 to 1000 nM throughout.
As to `CSc1cccc(-c2cc3c(-c4cnn(C5CCN(C(C)=O)CC5)c4)cnc(N)c3o2)c1` [Example 133, 1-[4-(4-{7-amino-2-[3-(methylsulfanyl)phenyl]furo[2,3-c]pyridin-4-yl}-1H-pyrazol-1-yl)piperidin-1-yl]ethanone], the IC50 at TAK1-TAB1 fusion protein, with p-p38 in HCT-116 cells and in the test on pJNK in HCT-116 cells was 1000 to 10000 nM throughout.
On to `Cn1cc(-c2cnc(N)c3oc(-c4cccc5cnccc45)cc23)cn1` [Example 70, 2-(isoquinolin-5-yl)-4-(1-methyl-1H-pyrazol-4-yl)furo[2,3-c]pyridin-7-amine], for which the IC50 on TAK1-TAB1 fusion protein was 1000 to 10000 nM; in the test with p-p38 in HCT-116 cells it was 100 to 1000 nM; in the test on pJNK in HCT-116 cells it was 100 to 1000 nM.
As to `CC(=O)N1CCC(n2cc(-c3cnc(N)c4oc(-c5cc(C(F)(F)F)cc(C(F)(F)F)c5)cc34)cn2)CC1` [Example 91, 1-[4-(4-{7-amino-2-[3,5-bis(trifluoromethyl)phenyl]furo[2,3-c]pyridin-4-yl}-1H-pyrazol-1-yl)piperidin-1-yl]ethanone], the results for the IC50 on TAK1-TAB1 fusion protein, in the test with p-p38 in HCT-116 cells and with pJNK in HCT-116 cells were greater than 10000 nM, 1000 to 10000 nM and 1000 to 10000 nM, respectively.
Turning to `CC(=O)N1CCC(n2cc(-c3cnc(N)c4oc(-c5csc6cncnc56)cc34)cn2)CC1` [Example 260, 1-(4-{4-[7-amino-2-(thieno[3,2-d]pyrimidin-7-yl)furo[2,3-c]pyridin-4-yl]-1H-pyrazol-1-yl}piperidin-1-yl)ethanone], the half-inhibitory concentration (IC50) on TAK1-TAB1 fusion protein was 100 to 1000 nM; with p-p38 in HCT-116 cells, 1000 to 10000 nM; in the test with pJNK in HCT-116 cells it was 1000 to 10000 nM.
Take `Nc1ncc(-c2cnn([C@H]3CC[C@H](O)CC3)c2)c2cc(-c3cc(F)cc4cnsc34)oc12` [Example 238, trans-4-{4-[7-amino-2-(5-fluoro-1,2-benzothiazol-7-yl)furo[2,3-c]pyridin-4-yl]-1H-pyrazol-1-yl}cyclohexanol diformate salt]: the half-inhibitory concentration (IC50) on TAK1-TAB1 fusion protein was 100 to 1000 nM; in the test with p-p38 in HCT-116 cells, 100 to 1000 nM; in the test with pJNK in HCT-116 cells, less than 100 nM.
Consider `CC(=O)N1CCC(n2cc(-c3cnc(N)c4oc(-c5ccc6sccc6c5)cc34)cn2)CC1` [Example 106, 1-(4-{4-[7-amino-2-(1-benzothiophen-5-yl)furo[2,3-c]pyridin-4-yl]-1H-pyrazol-1-yl}piperidin-1-yl)ethanone], for which the IC50 at TAK1-TAB1 fusion protein, in the test with p-p38 in HCT-116 cells and with pJNK in HCT-116 cells was 100 to 1000 nM in each case.
Regarding `CC(C)N1CCC(n2cc(-c3cnc(N)c4oc(-c5cccc6cnccc56)cc34)cn2)CC1` [Example 79, 2-(isoquinolin-5-yl)-4-{1-[1-(propan-2-yl)piperidin-4-yl]-1H-pyrazol-4-yl]furo[2,3-c]pyridin-7-amine], the half-maximal inhibitory concentration (IC50) on TAK1-TAB1 fusion protein, in the test on p-p38 in HCT-116 cells and in the test with pJNK in HCT-116 cells was 100 to 1000 nM each time.
`CNc1ncc(-c2cnn(C3CCN(C(C)=O)CC3)c2)c2cc(-c3c[nH]c4cnccc34)oc12` [Example 280, 1-(4-{4-[7-(methylamino)-2-(1H-pyrrolo[2,3-c]pyridin-3-yl)furo[2,3-c]pyridin-4-yl]-1H-pyrazol-1-yl}piperidin-1-yl)ethanone trifluoroacetic acid salt]: the IC50 at TAK1-TAB1 fusion protein is less than 100 nM; with p-p38 in HCT-116 cells, 100 to 1000 nM; in the test with pJNK in HCT-116 cells, 1000 to 10000 nM.
The like results for `CC(=O)N1CCC(n2cc(-c3cnc(N)c4oc(-c5cccc(C#N)c5)cc34)cn2)CC1` [Example 143, 3-{4-[1-(1-acetylpiperidin-4-yl)-1H-pyrazol-4-yl]-7-aminofuro[2,3-c]pyridin-2-yl}benzonitrile] were, in that order, 100 to 1000 nM, 100 to 1000 nM and 100 to 1000 nM.
Turning to `CC(=O)N1CCC(n2cc(-c3cnc(N)c4oc(-c5csc6cncc(F)c56)cc34)cn2)CC1` [Example 254, 1-(4-{4-[7-amino-2-(4-fluorothieno[2,3-c]pyridin-3-yl)furo[2,3-c]pyridin-4-yl]-1H-pyrazol-1-yl}piperidin-1-yl)ethanone trifluoroacetic Acid Salt], the IC50 at TAK1-TAB1 fusion protein is less than 100 nM; in the test on p-p38 in HCT-116 cells, 100 to 1000 nM; with pJNK in HCT-116 cells, 100 to 1000 nM.
Regarding `CC(=O)N1CCC(n2cc(-c3cnc(N)c4oc(-c5ccc6c(cnn6C)c5)cc34)cn2)CC1` [Example 146, 1-(4-{4-[7-amino-2-(1-methyl-1H-indazol-5-yl)furo[2,3-c]pyridin-4-yl]-1H-pyrazol-1-yl}piperidin-1-yl)ethanone], the results for the half-maximal inhibitory concentration (IC50) at TAK1-TAB1 fusion protein, in the test on p-p38 in HCT-116 cells and in the test with pJNK in HCT-116 cells were 1000 to 10000 nM, 1000 to 10000 nM and 100 to 1000 nM, respectively.
